Patent publication US20100113363A1, “Use of GLP-1 Peptides” (Novo Nordisk A/S, priority 1996, published 2010)
Like-named read-outs stand apart in the source and are kept apart here. No end group written: not given here.

What was measured:
[1] = rats, Tang-Christensen et al., cited from earlier work
[2] = rats, Turton et al., cited from earlier work
[3] = Suppression of appetite in mice by subcutaneously injected synthetic GLP-1(7-36)amide: Complan consumption; format: in vivo; settings: p<0.001
Protocol: The test method was as described in Example 3 except that the mice were pre-exposed to formula milk (Complan®—a nutritionally complete infant milk substitute) for one day, then fasted […]. On the test day, consumption of Complan® was measured for each mouse during a 10 min period.
Mice were tested for appetite suppression by subcutaneous injection of GLP-1(7-36)amide dissolved in phosphate buffered saline.

[4] = iv infusion of GLP-1(7-36)amide in healthy human volunteers: visual analogue scale ratings and ad libitum lunch energy intake; format: in vivo; settings: iv infusion 50 pmol/(kg·h)
Text: Healthy human volunteers (20 subjects) were in a double-blind crossover trial given an iv infusion of 50 pmol/(kg·h) of GLP-1(7-36)amide or saline on separate, but otherwise identical experimental days. The infusion was started at 9.00 and lasted until 15.00. At 9.45 the subjects received a fixed amount of breakfast and at 14.15 they had lunch of an identical composition but ad libitum. The subjects rated their feeling of satiety, hunger, fullness and appetite on a visual analogue scale every half hour. The results are given below:
The energy intake of each subjects was measured. The intakes were 3.9 MJ with GLP-1 and 4.3 MJ with Saline resulting in a p-value of 0.009.

[5] = Appetite suppression in mice: sucrose consumption, tested immediately after intraperitoneal injection; format: in vivo; settings: 85 micrograms (3.4 mg/kg) intraperitoneally, 10 minute period, p-value 0.002
Protocol: Mice were deprived of their normal food for two days and given free access to a 20% sucrose solution on the first day of food deprivation. After the two day food deprivation period, the mice were injected intraperitoneally with 0.5ml of a solution containing the test substance. Immediately after injection, individual mice were placed in one of eight 15 cm square test boxes with a stainless steel grid floor and a glass drinking tube which projected into the box. […] Consumption of the sucrose solution was measured over a 10 minute period by electronically recording the total amount of contact with the sucrose solution during the test session. The degree of appetite suppression produced by a given test substance was determined by statistical comparison of the mean duration of sucrose consumption by control (vehicle treated) mice with that of mice treated with a test substance. The degree of appetite suppression in a treated group of mice was expressed as percent difference between the test and control group's response duration means. […]

[6] = administered intracerebroventricularly

Substance | effect on food intake ([1]; route not stated) | effect on food intake [2, 6] | effect on food intake ([2]; peripheral administration) | effect on food intake [1, 6] | effect on food intake ([1]; peripherally administered) | suppression of feeding ([3]; 1 mg/kg subcutaneous, 30 min after injection) [%] | maximum effect, suppression of feeding ([3]; 20 mg/kg subcutaneous (highest dose tested)) [%] | energy intake ([4]; ad libitum lunch, saline 4.3 MJ, p-value 0.009) [mJ] | Satiety (visual analogue scale) ([4]; versus saline, p = 0.006) | Appetite (visual analogue scale) ([4]; versus saline, p = 0.007) | Hunger (visual analogue scale) ([4]; versus saline, p = 0.007) | Fullness (visual analogue scale) ([4]; versus saline, p = 0.010) | suppression of sucrose consumption [5] [%]
GLP-1(1-36)amide (HDEFERHAEGTFTSDVSSYLEGQAAKEFIAWLVKGR-NH2; UniProt P01275 92-127, looked up, fragment) [fragment 1-36 of GLP-1, C-terminal amide] | no effect |  |  |  |  |  |  |  |  |  |  |  | 
GLP-1(7-36)amide |  | profound effect | inactive | profound effect | no significant effect | 45 | 60 | 3.9 | GLP-1 > Saline, p = 0.006 | GLP-1 < Saline, p = 0.007 | GLP-1 < Saline, p = 0.007 | GLP-1 > Saline, p = 0.010 | 60
